What is called pIC50 is the negative decadic logarithm of the IC50, by convention in mol/L. By melting point is commonly meant the temperature, or range, at which the solid turns liquid.

The values that follow come from patent publication US8148415B2, “Sulfamic acid ester compounds useful in the inhibition of steroid sulphatase activity and aromatase activity” (Sterix Limited, priority 2004, dated 2012).

One series concerns the target T1, Aromatase (Homo sapiens, UniProt P11511).
T1 construct: Aromatase activity is measured in JEG3 choriocarcinoma cells, obtained from the ATCC; host or cells: JEG3 choriocarcinoma cells
T1 sequence (P11511 1-503): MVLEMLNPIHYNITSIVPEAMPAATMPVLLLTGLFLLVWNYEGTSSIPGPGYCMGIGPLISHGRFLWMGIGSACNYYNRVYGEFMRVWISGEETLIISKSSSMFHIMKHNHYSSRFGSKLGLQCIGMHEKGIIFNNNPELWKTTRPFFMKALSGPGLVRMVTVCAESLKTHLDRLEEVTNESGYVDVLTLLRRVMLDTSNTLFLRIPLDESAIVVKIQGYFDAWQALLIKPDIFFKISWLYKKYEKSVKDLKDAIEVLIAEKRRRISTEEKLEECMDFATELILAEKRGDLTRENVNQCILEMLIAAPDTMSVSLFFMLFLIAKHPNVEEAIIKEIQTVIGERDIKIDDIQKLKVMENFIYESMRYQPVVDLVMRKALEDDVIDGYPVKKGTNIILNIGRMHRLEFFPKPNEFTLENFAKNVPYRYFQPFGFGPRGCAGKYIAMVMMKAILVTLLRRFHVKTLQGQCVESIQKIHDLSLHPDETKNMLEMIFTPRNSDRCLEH
Kind of series: Aromatase activity in intact JEG3 choriocarcinoma cells (Protocol 6). It counts as cell-based.

Another series has as its system rats. As to conditions: rat, in vivo, cited from earlier work.
Series [1] addresses T2, Steroid sulphatase (Homo sapiens, UniProt P08842).
T2 sequence (P08842 22-583): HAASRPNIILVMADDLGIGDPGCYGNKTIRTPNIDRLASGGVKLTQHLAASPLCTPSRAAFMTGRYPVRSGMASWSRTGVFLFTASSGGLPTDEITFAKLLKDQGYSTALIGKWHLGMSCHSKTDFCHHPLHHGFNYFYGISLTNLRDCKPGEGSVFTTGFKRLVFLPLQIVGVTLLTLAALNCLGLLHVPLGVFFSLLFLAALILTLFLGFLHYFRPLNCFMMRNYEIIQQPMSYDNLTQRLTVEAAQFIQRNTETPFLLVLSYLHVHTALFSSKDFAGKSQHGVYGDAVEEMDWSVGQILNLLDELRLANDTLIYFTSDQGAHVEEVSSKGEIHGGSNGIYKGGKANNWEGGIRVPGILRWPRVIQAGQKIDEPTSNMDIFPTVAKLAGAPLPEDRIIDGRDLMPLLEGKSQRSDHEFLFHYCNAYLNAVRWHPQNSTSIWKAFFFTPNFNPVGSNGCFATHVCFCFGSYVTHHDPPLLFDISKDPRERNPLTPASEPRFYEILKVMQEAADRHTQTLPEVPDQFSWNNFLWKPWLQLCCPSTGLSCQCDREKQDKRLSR
Conditions: cited from earlier work.

A further series addresses T3, rat liver E1-STS (Rattus norvegicus, UniProt P15589).
T3 construct: from tissue; host or cells: rat liver
T3 sequence (P15589 20-577): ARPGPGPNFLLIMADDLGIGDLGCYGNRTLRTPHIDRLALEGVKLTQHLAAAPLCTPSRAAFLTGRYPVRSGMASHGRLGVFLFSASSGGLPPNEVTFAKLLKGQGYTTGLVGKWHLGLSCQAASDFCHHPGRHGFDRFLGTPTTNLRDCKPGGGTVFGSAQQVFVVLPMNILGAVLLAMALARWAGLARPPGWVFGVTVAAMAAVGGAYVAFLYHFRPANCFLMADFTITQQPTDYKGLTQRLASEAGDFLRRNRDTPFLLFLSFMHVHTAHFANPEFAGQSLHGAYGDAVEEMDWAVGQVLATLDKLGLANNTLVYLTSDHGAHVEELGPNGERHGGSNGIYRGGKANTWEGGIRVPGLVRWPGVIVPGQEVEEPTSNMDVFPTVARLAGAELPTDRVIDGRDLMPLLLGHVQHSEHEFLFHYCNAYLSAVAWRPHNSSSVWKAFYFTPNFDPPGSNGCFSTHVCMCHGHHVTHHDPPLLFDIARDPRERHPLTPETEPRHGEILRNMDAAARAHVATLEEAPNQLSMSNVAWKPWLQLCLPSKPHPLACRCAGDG
As to conditions: administered orally or subcutaneously; cited from earlier work.

A further series addresses T4, E1-STS (Homo sapiens, UniProt P08842).
T4 construct: endogenous in cells; host or cells: MCF-7 cells
T4 sequence (P08842 22-583): T2 sequence (P08842 22-583)
As to conditions: intact MCF-7 cells, 0.1 nM; cited from earlier work.

Another series deals with T5, rat liver DHEA-STS (Rattus norvegicus, UniProt P15589).
T5 construct: rat liver E1-STS (99%) and DHEA-STS (99%) activities; from tissue; host or cells: rat liver
T5 sequence (P15589 20-577): T3 sequence (P15589 20-577)
Conditions: administered orally or subcutaneously; cited from earlier work.

Series [2] concerns the target T2, Steroid sulphatase. As to the kind of experiment: Inhibition of steroid sulphatase activity in intact JEG3 cells (Protocol 1). Details: host or cells: JEG3 choriocarcinoma cells. Conditions: read-out: JEG3 cells IC50 Sulfatase. Type of series: cell-based. As to the method: Assay for Determining STS Activity Using Cancer Cells
Inhibition of Steroid Sulphatase Activity in JEG3 Cells
Steroid sulphatase activity is measured in vitro using intact JEG3 choriocarcinoma cells. This cell line may be used to study the control of human breast cancer cell growth.
Cells are maintained in Minimal Essential Medium (MEM) (Flow Laboratories, Irvine, Scotland) containing 20 mM HEPES, 5% foetal bovine serum, 2 mM glutamine, non-essential amino acids and 0.075% sodium bicarbonate. Up to 30 replicate 25 cm2 tissue culture flasks are seeded with approximately 1×10^5 cells/flask using the above medium. Cells are grown to 80% confluency and the medium is changed every third day.
Intact monolayers of JEG3 cells in triplicate 25 cm^2 tissue culture flasks are washed with Earle's Balanced Salt Solution (EBSS from ICN Flow, High Wycombe, U.K.) and incubated for 3-4 hours at 37° C. with 5 pmol (7×10^5 dpm) [6,7-3H]oestrone-3-sulphate (specific activity 60 Ci/mmol from New England Nuclear, Boston, Mass., U.S.A.) in serum-free MEM (2.5 ml) together with oestrone-3-sulphamate (11 concentrations: 0; 1 fM; 0.01 pM; 0.1 pM; 1 pM; 0.01 nM; 0.1 nM; 1 nM; 0.01 mM; 0.1 mM; 1 mM). […] A portion (2 ml) of the organic phase is removed, evaporated and the 3H and 14C content of the residue determined by scintillation spectrometry. […]

The conditions of series [3]: cited from earlier work.

pIC50: −log10 of the molar value. Where two headings read alike, the source gives them in different places.

In the case of `N#Cc1ccc(N(Cc2ccc(Br)c(OS(N)(=O)=O)c2)n2cnnc2)cc1` [STX1217, 4-[(4-Bromo-3-O-sulfamoylbenzyl)(4cyanophenyl)amino]-4H-[1,2,4]triazole], the pIC50 against Aromatase is 8.41.

For `COc1cc2c(cc1OS(N)(=O)=O)CC[C@@H]1[C@@H]2CC[C@]2(C)C(=O)CC[C@@H]12` [2-methoxyoestrone-3-O-sulphamate], in the series with rats, the oestrogenicity result is listed as “devoid of oestrogenicity”. In addition, the “potency as steroid sulphatase inhibitor relative to EMATE” value on Steroid sulphatase [1] is “equipotent with EMATE”.

Compound `COc1ccc(C(c2ccc(OC)c(O)c2)n2cncn2)cc1O` came in with a melting point of 217.5 to 219 °C.

`CC12CCC3c4ccc(OS(N)(=O)=O)cc4CCC3C1CCC2=O` (centres unmarked) [EMATE, oestrone-3-sulphamate]: the “inhibition of rat liver E1-STS activity” value on rat liver E1-STS is given as 99%. On E1-STS, the “inhibition of E1-STS activity” value is “more than 99%”. For the same compound, the “oral uterotrophic activity relative to estradiol” value in the series on rats (po) is on record as 100 times. Besides, the “inhibition of rat liver DHEA-STS activity” value at rat liver DHEA-STS is 99%.

In the case of `N#Cc1ccc(N(Cc2cccc(OS(N)(=O)=O)c2)n2cnnc2)cc1` [STX334, 4-[(3-O-Sulfamoylbenzyl)(4-cyanophenyl)amino]-4H-[1,2,4]triazole], the pIC50 against Aromatase (intact JEG3 cells) is 7.41; at Steroid sulphatase [2] it was 5.29.

For the compound `C[C@]12CC[C@@H]3c4ccc(OS(=O)(=O)O)cc4CC[C@H]3[C@@H]1CCC2=O` [E1S, oestrone sulphate], in [3], the half-life in blood was 10 to 12 h.
